For assay [1], the system named is complex I in neuronal cybrids derived from a MELAS patient (m.3243A>G tRNA^Leu mutation). Kind of assay: Ratio of complex I/citrate synthase activities in MELAS neuronal cybrids. Format: cell-based, human. Particulars: 1 μM or 300 nM, 48 hours. How it is done:
The mutant MELAS neuronal transmitochondrial line, which is the result of the fusion of the immortalised neuoroblastoma parental line SHSY-5Y with fibroblasts carrying the mutation m.3243A>G, was created in the laboratory of Prof. Procaccio.
Neuronal cybrid lines carrying the MELAS mutation and the parental control line were grown in sterile culture flasks and incubated at 37° C. with 5% CO2 in a medium composed of DMEM with 1.5 g/L glucose, 2 mM L-glutamine and supplemented with 10% foetal bovine serum as well as uridine (5 μg/ml) and pyruvate (10 μg/mL). […]
(§1) The MELAS neuronal cybrid line carrying the mutation seemingly in the homoplasmic state (i.e. reaching almost 100% MELAS mutation) and the SHSY-5Y parental control line were used for measurements of enzyme activities. […] These cell pellets were then analysed by spectrophotometry with measurement of the different mitochondrial biochemical activities, particularly the activity of citrate synthase and the activity of complex I of the respiratory chain. […]
The enzymatic activities were measured according to the protocol described in Medjda et al, 2009 (Medja F, Allouche S, Frachon P, Jardel C, Malgat M, Mousson de Camaret B, Slama A, Lunardi J, Mazat J P, Lombès A. Development and implementation of standardized respiratory chain spectrophotometric assays for clinical diagnosis. Mitochondrion. 2009 September; 9(5):331-9).

Assay [2] relates to neuronal cybrids derived from a MELAS patient (m.3243A>G tRNA^Leu mutation). The assay is described as follows: Lactate production of MELAS neuronal cybrids. Type of assay: cell-based, human. Particulars: 1 μM or 300 nM, 48 hours. How it is done: The increase in the lactate production is the result of a toxicity of the drug used, but also of a mitochondrial dysfunction (energy deficiency) present in MELAS syndrome.
Neuronal cybrid lines carrying the MELAS mutation and the parental control line were grown in sterile culture flasks and incubated at 37° C. with 5% CO2 in a medium composed of DMEM with 1.5 g/L glucose, 2 mM L-glutamine and supplemented with 10% foetal bovine serum as well as uridine (5 μg/ml) and pyruvate (10 μg/mL). The cells were harvested by trypsinisation in exponential phase and were used for subsequent biochemical or molecular mitochondrial analyses.
as §1
The lactate concentration of the culture medium for neuronal cybrid and parental cells was determined by spectrophotometry using an enzymatic kit (Bohringer) on a Hitachi-Roche apparatus (Roche Diagnostics GmbH). […]

Turning to `CCCCCCCN(CC)CCCC(O)c1ccc(NS(C)(=O)=O)cc1` (centres unmarked) [ibutilide], the “activity of complex I (ratio complex I/citrate synthase)” value in assay [1] is reported as “increased”. Further, the production of lactate result in assay [2] is given as “decreased”.

The record behind these values is patent publication US10639287B2, “Compounds for the treatment of mitochondrial diseases” (UNIVERSITE PARIS-SUD, priority 2014, dated 2020).
